Consider six molecules from US20100239568A1, “DIAGNOSTICS AND TREATMENTS FOR TUMORS” (GENENTECH, INC., priority 2006, published 2010).

In one data set the test system is B16F1 tumors. The experiment in a line: Tumor growth of B16F1 tumors in mice. The format is in vivo, mouse. Conditions: B16F1 in C57BL/6; compared to anti-VEGF treatment; day 17. As to the method: (§1) Cell Lines. The EL4, LLC, B16F1 and TIB6 (J558) tumor cell lines were obtained from American Type Culture Collection (ATCC) and maintained in tissue culture in high glucose Dulbecco's Modified Medium (DMEM) and supplemented with 10% fetal bovine serum (FBS) and 2 mM glutamine. The terms “B16F1” and “B16” are used interchangeably herein to refer to the same melanoma cell line.
(§2) Antibodies. Anti-VEGF, such as G6-23, is an antibody that binds to and neutralizes murine and human forms of VEGF. Derived from phage display technology, the IgG portion comprised murine isotype IgG2a (see, e.g., Malik, A. K. et al. Redundant roles of VEGF-B and P1GF during selective VEGF-A blockade in mice. Blood 107:550-7 (2006)) and was dosed at 10 mg/kg, IP, twice weekly unless indicated otherwise. Isotype-matched control antibody was anti-human ragweed-IgG2a (Genentech, Inc.). Anti-CD11b+ antibody (eBioSciences), anti-L-selectin (BD BioSciences) and anti-CXCR4 (Torrey Pines Lab) were used in FACS experiments. […] Tumor measurement was performed twice/week and terminal tumor weights were determined as described above. […]
(§3) B16F1 admixing experiments. […] Tumor size was assessed using Vernier calipers 2-3 times per week after tumors reached a palpable size. Tumor volume was determined using the Pi/6×L×W×W formula with L as the longest diameter and W the diameter at the position perpendicular to L. […]

In data set [1] the test system is EL4 tumors. Description: Tumor growth of EL4 tumors in mice. Conditions: EL4 in C57BL/6; 5FU 50 mg/kg once a week, Gemcitabine 120 mg/kg twice a week, IP; day 17. The format is in vivo, mouse. How it is done: as §1, §2, §3
A further data set deals with LLC tumors. The experiment in a line: Tumor growth of LLC tumors in mice. Conditions: LLC in C57BL/6; 5FU 50 mg/kg once a week, Gemcitabine 120 mg/kg twice a week, IP; day 17. The class given is in vivo, mouse. How it is done: as §1, §2, §3
The next data set deals with TIB6 tumors. Description: Tumor growth of TIB6 tumors in mice. Conditions: TIB6 in C57BL/6; 5FU 50 mg/kg once a week, Gemcitabine 120 mg/kg twice a week, IP; day 17. The format is in vivo, mouse. As to the method: as §1
Antibodies. Anti-VEGF, such as G6-23, is an antibody that binds to and neutralizes murine and human forms of VEGF. Derived from phage display technology, the IgG portion comprised murine isotype IgG2a (see, e.g., Malik, A. K. et al. Redundant roles of VEGF-B and P1GF during selective VEGF-A blockade in mice. Blood 107:550-7 (2006)) and was dosed at 10 mg/kg, IP, twice weekly unless indicated otherwise. Isotype-matched control antibody was anti-human ragweed-IgG2a (Genentech, Inc.). […] Tumor measurement was performed twice/week and terminal tumor weights were determined as described above.
B16F1 admixing experiments. […] Tumor size was assessed using Vernier calipers 2-3 times per week after tumors reached a palpable size. Tumor volume was determined using the Pi/6×L×W×W formula with L as the longest diameter and W the diameter at the position perpendicular to L.
Chemotherapy. […] Tumor volume was measured twice a week and was calculated as described.

A further data set relates to CD11b+Gr1+ cells. The experiment in a line: Flow cytometry of myeloid cells in tumor, bone marrow and peripheral blood of treated mice. The format is in vivo, mouse. Conditions: for CD11b+Gr1+ cells in B16F1 tumors after chemotherapy: tumor isolates after 17 days. How it is done:
Flow cytometry. Tumors of control and anti-VEGF-treated mice were isolated and single cell suspension was generated by chopping of tumor tissues followed by treatment with a cell homogenizer (VWR). BMMNCs were flushed from femur and tibia of implated animals and underwent RBC lysis using ACK lysis buffer (Cambrex, Mass.). Peripheral blood was collected by retro-orbital bleed and 40 μl of peripheral blood was pre-treated with ACK buffer for red blood cells lysis.
Cells from BM, tumor or peripheral blood were stained with a series of monoclonal antibodies including, CD11b, Gr1, CD19, CD90, VEGFR2, CXCR4, L-Selectin2 (all from BD BioSciences, CA), VEGFR1 (R&D, CA), Tie2 (eBioSciences, CA) along with appropriate isotype control to investigate the myeloid and lymphoid fractions in each compartment. FACS data were acquired on FACS calibur and analyzed by Cell Quest Pro software (BD Biosciences).
To isolate GFP+ cells and/or CD11b+Gr1+, single cell suspension was provided from the bone marrow or tumors of implanted mice. Cells and were stained with anti-CD11b conjugated to APC and anti-Gr1 conjugated to PE. Populations of GFP, GFP−, CD11b+Gr1+ and CD11b−Gr1− cells were isolated in a FACS Vantage machine and post-sort analysis ensured the purity of the population of interest in each compartment.

Data set [2] has as its system EL4 tumors. The experiment in a line: In vivo treatment with clodronate liposomes and anti-VEGF, EL4 tumor volume. Conditions: mice bearing resistant tumors. Details: species or system mouse. As to the method:
In vivo treatment to examine for macrophage depletion and tumor expression: EL4, the murine lymphocyte leukemia cell line, was used. Treatment was started 48 hours after implanting EL4 tumor cells (5×10^6, 0.1 ml vol. in matrigel) in nude mice. Treatment was as follows: Group 1: 8 mice, twice a week PBS-liposome 200 μl IV and Ragweed IgG 2×5 mg/kg/week 100 μl ip.; Group 2: 8 mice, twice a Week: PBS-liposome 200 μl IV and G6-31 2×5 mg/kg/week 100 μl ip.; Group 3: 8 mice, twice a week: Clodronate-liposome 200 μl IV. Ragweed IgG 2×5 mg/kg/week 100 μl ip.; Group 4: 8 mice twice a week: Clodronate-liposome 200 μl IV. G6-31 2×5 mg/kg/week 100 μl ip. Group 5: 8 mice twice a week: Clodronate-liposome 200 μl Iv. PBS twice a week 100 μl ip. 3 mice of each group were pre-bled for 50 μl of whole blood for FACS macrophage cell population evaluation. 3 mice of each group were bled (optical) for 100 μl of whole blood at 1 hour after each PBS-liposome or Clodronate-liposome injection for FACS analysis. The study continued until sufficient tumor growth (not beyond 5 weeks). Tumor growth was defined as sufficient if a tumor was greater than 20 mm in length. Tumor size was measured weekly (1×w×h). […] At the endpoint of the experiment the animals were sacrificed, the tumors, measured one final time then extracted, weighed and then fixed. […]

For a further data set, the system named is HUVEC cells. The experiment in a line: Angiogenic sprouting and capillary lumen formation assay. The class given is cell-based, human. Conditions: 1.25 μg/ml with D551 fibroblasts, day 10. As to the method: See FIG. 13, Panel A and Pane B on day 10. In the assays, HUVEC cells were thawed at low passage number a day before the cells were coated on beads. The cells were detached at about 80% confluency and coated on cytodex microbeads (a cross-linked dextran matrix) with HUVEC (400 cells/bead) for 4 hours at 37° C. Beads and free HUVEC cells were transferred to a flask and cultured overnight. The beads were detached and they were mixed with fibrinogen (bovine plasma) (250 μg/ml). Fibrinogen was then converted to insoluble fibrin gel by adding thrombin. There are about 100 beads/12-well plate. The beads were cultured with 40,000 D551 fibroblasts and VEGF as positive controls, D551 or VEGF as negative controls, MCP-1 and D551, or MIP-1alpha and D551. The media was changed everyday. The cultures were stained with biotinylated anti-human CD31 and Cy3 streptavidin overnight with extensive washes. Pictures were taken at 60 hours, 6 days and 10 days.

The test system of a further data set is xenograft models. Conditions: most xenograft models tested; cited from earlier work.
The test system of data set [3] is human cancers, including renal and ovarian carcinomas. Conditions: clinical evaluation; cited from earlier work.

Take `O=c1[nH]cc(F)c(=O)[nH]1` [5FU, 5-Fluorouracil]: the “tumor response to chemotherapy (tumor volume)” value was “resistance” in the data set on B16F1 tumors, “complete response” in the data set with EL4 tumors [1], “complete response” with LLC tumors and “completely sensitive” with TIB6 tumors. In addition, the “BM CD11b+Gr1+ cells after chemotherapy” value in the data set on CD11b+Gr1+ cells (bone marrow, all tumor types) is listed as “complete exhaustion”. Further, the “CD11b+Gr1+ cells in B16F1 tumors after chemotherapy” value in the data set on CD11b+Gr1+ cells was “lack of CD11b+Gr1+ cells”.
In the case of `Nc1ccn([C@@H]2O[C@H](CO)[C@@H](O)C2(F)F)c(=O)n1` [Gemcitabine], the “tumor response to chemotherapy (tumor volume)” value in the data set on B16F1 tumors is recorded as “resistance”; in the data set on EL4 tumors [1], “partial resistance”; in the data set on LLC tumors it was “partial resistance”; in the data set on TIB6 tumors it was “completely sensitive”. The “CD11b+Gr1+ cells in B16F1 tumors after chemotherapy” value in the data set with CD11b+Gr1+ cells is on record as “lack of CD11b+Gr1+ cells”.
On to `O=P(O)(O)C(Cl)(Cl)P(=O)(O)O` [clodronate], for which the “efficacy of anti-VEGF treatment after depletion of TAMs” value in the data set on EL4 tumors [2] is listed as “improved”.
For the molecule “MCP-1: monocyte chemoattractant protein-1”, the “angiogenic activity (sprouting and capillary lumen formation)” value in the data set on HUVEC cells is “angiogenic activity”.
For “bevacizumab: humanized anti-VEGF monoclonal antibody”, the “tumor growth and tumor angiogenesis” value in the data set on xenograft models was “significantly inhibited tumor growth and reduced tumor angiogenesis”. Also, the single-agent activity result in [3] was “significant single-agent activity”.

B1: MIP-1alpha: macrophage inflammatory protein-1a (protein, UniProt P10147 24-92, looked up)
C-C motif chemokine 3: SLAADTPTACCFSYTSRQIPQNFIADYFETSSQCSKPGVIFLTKRSRQVCADPSEEWVQKYVSDLELSA
In the case of B1, the “angiogenic activity (sprouting and capillary lumen formation)” value in the data set on HUVEC cells is “angiogenic activity”.
